The source made the active and inactive calls.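 How the source made its calls: active means GFP ratio vs DMSO below 0.65 in a strain, using the primary screen cutoff set for that strain's protein target; inactive means the rest.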
Tests used:
Test in all cases: GFP reporter expression in TORC1-bypass yeast, mechanism study for yeast TOR pathway modulator project, S. cerevisiae, TORC1 bypass vs wild-type strains (AID 504479)
Conditions in all cases: fluorescence ratio vs DMSO, at 10 µM
YKL103C = system: YKL103C
YCR005C = system: YCR005C
YCL025C = system: YCL025C
YNL142W = system: YNL142W
YBR084C-A = system: YBR084C-A
BY4741 = system: BY4741
[1] = LAP4-GFP in TORC1 bypass strain, stronger effect = higher value
[2] = CIT2-GFP in TORC1 bypass strain, stronger effect = higher value
[3] = AGP1-GFP in TORC1 bypass strain, stronger effect = higher value
[4] = MEP2-GFP in TORC1 bypass strain, stronger effect = higher value
[5] = RPL19A-GFP in TORC1 bypass strain, stronger effect = lower value

Row | SMILES | GFP ratio vs DMSO (YKL103C; [1]) | GFP ratio vs DMSO (YKL103C) | GFP ratio vs DMSO (YCR005C; [2]) | GFP ratio vs DMSO (YCR005C) | GFP ratio vs DMSO (YCL025C; [3]) | GFP ratio vs DMSO (YCL025C) | GFP ratio vs DMSO (YNL142W; [4]) | GFP ratio vs DMSO (YNL142W) | GFP ratio vs DMSO (YBR084C-A; [5]) | GFP ratio vs DMSO (YBR084C-A) | GFP ratio vs DMSO (BY4741)
1 | CN1CCN(C(c2ccc(C(F)(F)F)cc2)c2ccc3cccnc3c2O)CC1 (stereo not given) | 1.29 | 1.58 | 0.633 | 0.641 (inactive) | 0.842 | 0.994 (inactive) | 0.978 | 0.993 (inactive) | 0.96 | 0.85 (inactive) | 0.792 (inactive)
2 | CCc1ccc(OCC(=O)NNC(=S)NC(=O)C2CC2)c(Br)c1 | 1.3 | 2.76 | 0.796 | 0.882 (inactive) | 0.819 | 1.1 (inactive) | 1.13 | 1.23 (inactive) | 1.03 | 1.15 (inactive) | 1.41 (inactive)
3 | O=C(OCC(=O)N1CCN(C(=O)c2ccco2)CC1)c1cc(-c2cccc(Br)c2)nc2ccccc12 | 0.965 | 1.37 (inactive) | 0.954 | 1.19 (inactive) | 1.08 | 1.2 (inactive) | 1.01 | 1.09 (inactive) | 0.991 | 0.79 (inactive) | 0.833 (inactive)
4 | CC(C)(C)n1nc(-c2ccc(Cl)cc2)c2c(N)ncnc21 | 1.2 | 1.48 (inactive) | 0.547 | 0.359 (inactive) | 0.927 | 0.943 (inactive) | 0.887 | 1.04 (inactive) | 0.612 | 0.547 | 0.794 (inactive)
5 | O=C(NC(=S)NNC(=O)c1cnccn1)c1ccc(F)cc1 | 1.35 | 1.64 | 0.691 | 0.716 (inactive) | 0.606 | 0.808 (inactive) | 0.971 | 1.07 (inactive) | 0.827 | 0.877 (inactive) | 0.925 (inactive)

From PubChem BioAssay AID504479 (NMMLSC, 2011)
